Measured values as given in US9822139B2, “Pharmaceutical composition containing cyclometalated N-heterocyclic carbene complexes for cancer treatment” (THE UNIVERSITY OF HONG KONG, priority 2009, dated 2017).

Legend:
KB cells = assay: Alkaline comet assay for DNA strand breaks; format: cell-based; details: for strand breaks on chromosomal DNA (comet assay): 3 h, KB cells; for reversal of DNA cleavage events upon second incubation: second incubation at 55° C. for 10 min
TopoI = biological target: T1, TopoI (Homo sapiens, UniProt P11387); assay: Band depletion assay for TopoI cleavable complexes; format: cell-based; details: KB cells
T1 construct: endogenous in cells; host or cells: KB cells
T1 sequence (P11387 1-765): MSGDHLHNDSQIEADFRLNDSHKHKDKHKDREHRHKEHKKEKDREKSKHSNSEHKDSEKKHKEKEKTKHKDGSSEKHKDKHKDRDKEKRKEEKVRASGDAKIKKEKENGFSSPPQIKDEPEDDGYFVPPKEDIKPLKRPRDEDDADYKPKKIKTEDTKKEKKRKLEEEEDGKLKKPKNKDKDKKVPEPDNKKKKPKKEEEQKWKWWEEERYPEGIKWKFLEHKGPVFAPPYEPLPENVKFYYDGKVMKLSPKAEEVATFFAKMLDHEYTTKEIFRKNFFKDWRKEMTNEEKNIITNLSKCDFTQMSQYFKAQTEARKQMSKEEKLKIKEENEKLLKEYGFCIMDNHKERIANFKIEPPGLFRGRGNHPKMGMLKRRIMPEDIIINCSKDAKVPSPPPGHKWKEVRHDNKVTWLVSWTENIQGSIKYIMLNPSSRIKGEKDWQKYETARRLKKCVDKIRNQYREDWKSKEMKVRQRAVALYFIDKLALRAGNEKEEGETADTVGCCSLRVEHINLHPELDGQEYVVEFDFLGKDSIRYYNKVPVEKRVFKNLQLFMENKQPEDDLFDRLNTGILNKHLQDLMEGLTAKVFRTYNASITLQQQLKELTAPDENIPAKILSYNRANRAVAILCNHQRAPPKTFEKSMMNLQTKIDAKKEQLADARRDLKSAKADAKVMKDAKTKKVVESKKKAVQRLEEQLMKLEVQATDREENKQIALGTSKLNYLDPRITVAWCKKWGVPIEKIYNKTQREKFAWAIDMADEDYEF
Excerpt: In this assay, while TopoI-DNA cleavable complexes are trapped by alkaline lysis, free TopoI is detected as an immunoreactive band.

[1] = test system: hepatocellular carcinoma (HepG2); assay: MTT cytotoxicity assay, HepG2; format: cell-based, human; details: 72 h
Procedure: (§1) Example 2 describes the in vitro cytotoxicity, which is indicative of the induction of cell death and/or inhibition of cellular proliferation of cancer cells, of the cyclometalated N-heterocyclic complexes on cervical epithelioid carcinoma, hepatocellular carcinoma, leukemia, nasopharyngeal carcinoma, breast carcinoma, melanoma, and lung carcinoma.
(§2) By means of MTT assays, the cytotoxic properties of cyclometalated N-heterocyclic carbene complexes (1-25) were determined toward some established human cancer cell lines including hepatocellular carcinoma (HepG2), cervical epithelioid carcinoma (HeLa), epithelial carcinoma (KB and its camptothecin-resistant cell line KB100), non-small cell lung carcinoma (NCI-H460), leukemia (HL-60), breast carcinoma (MDA-MB-231), melanoma (B16) and nasopharyngeal carcinoma (SUNE1). […] In terms of the IC50 values, they display similar cytotoxic properties compared to the reference complexes cisplatin and camptothecin (CPT).

[2] = test system: cervical epithelioid carcinoma (HeLa); assay: MTT cytotoxicity assay, HeLa; format: cell-based, human; details: 72 h
Procedure: as §1, §2

[3] = test system: epithelial carcinoma (KB); assay: MTT cytotoxicity assay, KB; format: cell-based, human; details: 72 h
Procedure: as §1, §2

[4] = test system: camptothecin-resistant cell line KB100; assay: MTT cytotoxicity assay, KB100; format: cell-based, human; details: 72 h
Procedure: as §1, §2

[5] = test system: non-small cell lung carcinoma (NCI-H460); assay: MTT cytotoxicity assay, NCI-H460; format: cell-based, human; details: 72 h
Procedure: as §1, §2

[6] = test system: breast carcinoma (MDA-MB-231); assay: MTT cytotoxicity assay, MDA-MB-231; format: cell-based, human; details: 72 h, MBA-MD-231
Procedure: as §1, §2

melanoma (B16) = assay: MTT cytotoxicity assay, B16; format: cell-based, mouse; details: 72 h
Procedure: as §1, §2

leukemia (HL-60) = assay: MTT cytotoxicity assay, HL-60; format: cell-based, human; details: 72 h
Procedure: as §1, §2

[7] = test system: lung fibroblast cells (CCD-19Lu); assay: MTT cytotoxicity to non-cancerous cells, CCD-19Lu; format: cell-based, human; details: 72 h, non-cancerous lung fibroblast cells CCD-19Lu
Procedure: as §2
Using lung fibroblast cells (CCD-19Lu), the cytotoxicity of the complexes to non-cancerous cells was also examined.

[8] = test system: established human cancer cell lines; assay: MTT cytotoxicity, panel of cancer cell lines (summary statements); format: cell-based; details: in terms of IC50, versus cisplatin
Procedure: as §2

[9] = test system: PLC tumor (hepatocellular carcinoma); assay: In vivo anti-cancer study, nude mice bearing PLC tumor; details: 3 mg/kg/week for 28 days
Excerpt: Prompted by the prominent in vitro cytotoxicity and the potential cancer-cell selectivity, the in vivo anti-cancer property of complex 1 was preliminarily examined by using nude mice models with the approval from the Committee on the Use of Live Animals for Teaching and Research (The University of Hong Kong).

SUNE1 cells = assay: Apoptosis induction by flow cytometry (AV-FITC / PI); format: cell-based; details: 72 h
Procedure: Since cancer is characterized by uncontrolled cellular proliferation, there is a considerable interest in chemotherapeutic-induced apoptosis [J. C. Reed, Nature Rev. Drug Discov. 2002, 1, 111; D. W. Nicholson, Nature 2000, 407, 810]. Using fluorescein-labeled annexin V (AV-FITC) and propidium iodide (PI), the apoptosis-inducing properties of complex 1 in SUNE1 cells were examined by flow cytometry. […] The apoptosis-inducing properties of complex 1 at a lower dose (12 μM for 72 h) were also examined. […] According to the propagation profiles (formazan absorbance A550nm vs incubation time) of the treated SUNE1 cells, there is a trend of cellular growth inhibition in the presence of complex 1 at 12 μM level. Taken together with the flow cytometric results, complex 1 appears to inhibit cancer cell proliferation at 12 μM and induce apoptosis at higher doses (i.e. 60 μM).
The apoptosis-inducing properties of complex 14 in SUNE1 cells were also examined by flow cytometry. […] The apoptosis-inducing properties of complex 14 at a lower dose (1 μM for 72 h) were also examined. […] Thus, complex 14 could induce apoptosis at 10 μM.

topoisomerase I (TopoI) = biological target: T2, topoisomerase I (TopoI) (Homo sapiens, UniProt P11387); assay: TopoI-mediated relaxation of supercoiled DNA; format: biochemical
T2 sequence (P11387 1-765): T1 sequence (P11387 1-765)
Excerpt: DNA strand breaks were also detected in complex 1-treated KB cells by alkaline comet assay. […] Topoisomerases have become one of the important cellular targets for anti-cancer treatment. It is believed that topoisomerase inhibitors prevent the ligation step of the cell cycle, generate DNA strand breaks, and subsequently induce apoptosis in cells. […] The assay was repeated on ethidium bromide containing gel (FIG. 4, lower).

## CC[C@@]1(O)C(=O)OCc2c1cc1n(c2=O)Cc2cc3ccccc3nc2-1 [CPT, camptothecin]
KB cells; 1 μM
  strand breaks on chromosomal DNA (comet assay): induced extensive strand breaks on chromosomal DNA
KB cells
  reversal of DNA cleavage events upon second incubation: partially reversed
TopoI; 1 μM
  band intensity of the TopoI band: reduced the band intensity of the TopoI band

## Cn1cc[n+](C)[c]1[Au-]12[c]3ccccc3-c3cccc([n+]31)-c1cccc[c]12.O=S(=O)([O-])C(F)(F)F [Complex 1]
[1]
  IC50: 370 nM
[2]
  IC50: 150 nM
[3]
  IC50: 560 nM
[4]
  IC50: 1200 nM
[5]
  IC50: 170 nM
[6]
  IC50: 620 nM
Melanoma (B16)
  IC50: 330 nM
Leukemia (HL-60)
  IC50: 480 nM
[7]
  IC50: 25 µM
[8]
  fold higher cytotoxic activity than cisplatin: 18 to 28 fold
[9]; nude mice
  toxic side-effect including death and weight loss: no apparent 1-induced toxic side-effect including death and weight loss was observed
[9]; nude mice bearing PLC tumor
  suppression of tumor growth compared to vehicle control: 47%
SUNE1 cells; 12 μM
  viable cells unstained by both AV-FITC and PI: ~90%
SUNE1 cells; 60 μM
  SUNE1 cells in early apoptotic state: 30.9%
KB cells; 0.5 μM
  strand breaks on chromosomal DNA (comet assay): induced extensive strand breaks on chromosomal DNA
KB cells
  reversal of DNA cleavage events upon second incubation: partially reversed
Topoisomerase I (TopoI); 10 μM
  inhibition of TopoI-mediated DNA relaxation: completely inhibited
Topoisomerase I (TopoI); dose response, compared with CPT
  inhibition of TopoI-mediated DNA relaxation: dose-dependently inhibits DNA relaxation at significant lower concentrations than CPT
Topoisomerase I (TopoI); ethidium bromide containing gel
  nicked DNA (stimulation of DNA cleavage by TopoI): presence of nicked DNA was observed
TopoI; 10 and 100 nM
  band intensity of the TopoI band: reduced the band intensity of the TopoI band
